Some test systems named below: A549 NSCLC; ACHN renal; COLO 205 colon; EKVX NSCLC; HCT-116 colon; HCT-15 colon; HOP-92 NSCLC; LOX IMVI melanoma; OVCAR-3 ovarian; OVCAR-8 ovarian; RXF 393 renal; SF-268 CNS; SK-OV-3 ovarian; SNB-19 CNS; U251 CNS; CAKI-1 renal.
Holding throughout (test): NCI tumour cell line growth inhibition, 48 h

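Exposure lasted 48 hours, with cells grown in 96-well plates and compounds tested at five concentrations. TGI is the concentration that stops growth completely.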 A value given as a limit tells only on which side of the number the result lay.

Take `O=C(CCCl)NNC1=NCCN1`: the TGI in the assay with A549 NSCLC, in the assay with ACHN renal, in the assay with COLO 205 colon, with EKVX NSCLC, with HCT-116 colon and with HCT-15 colon was > 100 µM in each case. The TGI in the assay on HOP-92 NSCLC, in the assay with LOX IMVI melanoma, with OVCAR-3 ovarian, in the assay with OVCAR-8 ovarian, in the assay on RXF 393 renal and in the assay with SF-268 CNS was > 100 µM throughout. Moreover, the TGI with SK-OV-3 ovarian, with SNB-19 CNS and with U251 CNS was > 100 µM throughout.
With `COC(=O)CCn1cnc2c(SC)ncnc21`, the TGI in the assay on A549 NSCLC, in the assay with ACHN renal, with CAKI-1 renal, in the assay with COLO 205 colon, with EKVX NSCLC and in the assay with HCT-116 colon was > 100 µM throughout. Further, the TGI with HOP-92 NSCLC, in the assay on LOX IMVI melanoma, in the assay on OVCAR-3 ovarian, in the assay on OVCAR-8 ovarian, in the assay with RXF 393 renal and in the assay with SF-268 CNS was > 100 µM each time. For the same compound, the TGI in the assay with SK-OV-3 ovarian and in the assay on SNB-19 CNS was > 100 µM in each case.
With `CCOC(=O)NC(NC(C)CC)(C(F)(F)F)C(F)(F)F` (stereo not given), the TGI in the assay on A549 NSCLC, in the assay on ACHN renal, in the assay with CAKI-1 renal, with COLO 205 colon, in the assay with EKVX NSCLC and in the assay on HCT-116 colon was > 100 µM throughout. Besides, the TGI with HCT-15 colon, in the assay with HOP-92 NSCLC, in the assay with LOX IMVI melanoma, in the assay on OVCAR-3 ovarian, in the assay with OVCAR-8 ovarian and with RXF 393 renal was > 100 µM throughout. Moreover, the TGI in the assay on SF-268 CNS, in the assay with SNB-19 CNS and in the assay on U251 CNS was > 100 µM throughout.
On to `CCCCn1c2c(n(CCCC)c1=S)-c1c(n(CCCC)c(=S)n1CCCC)SSSS2`, for which the TGI in the assay on A549 NSCLC is > 95.1 µM; in the assay on ACHN renal, 7 µM; in the assay with COLO 205 colon, 1.68 µM; with EKVX NSCLC, 23.2 µM; in the assay with HCT-116 colon it was 11.8 µM; in the assay with HCT-15 colon, 4.45 µM. Moreover, the TGI in the assay on HOP-92 NSCLC is 6.04 µM; with LOX IMVI melanoma, 12.1 µM; in the assay on OVCAR-3 ovarian it was 2.65 µM; with OVCAR-8 ovarian it was 18.1 µM; in the assay on RXF 393 renal it was 14.6 µM; in the assay on SF-268 CNS, 21.4 µM. Besides, the TGI in the assay with SK-OV-3 ovarian is > 100 µM; in the assay on SNB-19 CNS, > 100 µM; with U251 CNS, 12.9 µM.
In the case of `COc1ccccc1Cn1nc(OC)c2cc([N+](=O)[O-])ccc21`, the TGI with A549 NSCLC is > 100 µM; with ACHN renal, > 100 µM; with CAKI-1 renal it was > 53.6 µM; with COLO 205 colon, > 100 µM; in the assay on EKVX NSCLC, > 73.6 µM; in the assay on HCT-116 colon, > 100 µM. In addition, the TGI with HCT-15 colon is > 100 µM; in the assay with HOP-92 NSCLC, 33.8 µM; in the assay on LOX IMVI melanoma it was > 100 µM; in the assay on OVCAR-3 ovarian it was > 100 µM; with OVCAR-8 ovarian, > 100 µM; with RXF 393 renal, 11.2 µM. Also, the figures for the TGI in the assay on SF-268 CNS, in the assay on SNB-19 CNS and in the assay with U251 CNS were 36.9 µM, 41.5 µM and 29 µM, respectively.
Turning to `N/N=C1/CCCc2nonc21`, the TGI in the assay on A549 NSCLC, with ACHN renal, in the assay on CAKI-1 renal, with COLO 205 colon, in the assay with EKVX NSCLC and with HCT-116 colon was > 100 µM in each case. Also, the TGI with HCT-15 colon, with HOP-92 NSCLC, in the assay with LOX IMVI melanoma, with OVCAR-3 ovarian, with OVCAR-8 ovarian and in the assay with RXF 393 renal was > 100 µM each time. Further, the TGI in the assay on SF-268 CNS, in the assay on SK-OV-3 ovarian and in the assay with U251 CNS was > 100 µM throughout.
For `CCOC(=O)CCC(NC(=O)Cc1ccc(Oc2nc3ccccc3nc2-c2cccs2)cc1)C(=O)OCC` (stereo not given), the TGI with A549 NSCLC is 62.8 µM; in the assay on ACHN renal it was 18.3 µM; in the assay on CAKI-1 renal, > 100 µM; in the assay with COLO 205 colon it was > 100 µM; in the assay with EKVX NSCLC, > 100 µM; in the assay on HCT-116 colon, > 100 µM. In addition, the TGI with HCT-15 colon is > 100 µM; in the assay on HOP-92 NSCLC, 47.7 µM; in the assay on LOX IMVI melanoma it was > 100 µM; in the assay with OVCAR-3 ovarian, 29.2 µM; with OVCAR-8 ovarian, 14.2 µM; in the assay with RXF 393 renal, 27.5 µM. For the same compound, the TGI in the assay on SF-268 CNS is 12.6 µM; in the assay with SNB-19 CNS, 37.2 µM; in the assay with U251 CNS, 87.1 µM.
For `O=[N+]([O-])c1cc(Cl)cc2cc(Cl)cnc12`, the TGI in the assay with A549 NSCLC, in the assay with ACHN renal, in the assay on CAKI-1 renal, with COLO 205 colon, in the assay on EKVX NSCLC and in the assay with HCT-116 colon was > 100 µM each time. The TGI in the assay on HCT-15 colon, with HOP-92 NSCLC, in the assay with LOX IMVI melanoma, with OVCAR-3 ovarian, in the assay with OVCAR-8 ovarian and with RXF 393 renal was > 100 µM each time. The TGI in the assay with SF-268 CNS, in the assay on SNB-19 CNS and in the assay with U251 CNS was > 100 µM in each case.
For `Cc1cccc(-c2cc(=S)c3cc(N4CCCC4)ccc3[nH]2)c1`, the TGI with A549 NSCLC, with ACHN renal, in the assay with CAKI-1 renal, in the assay on COLO 205 colon, in the assay with EKVX NSCLC and with HCT-116 colon was > 100 µM each time. Also, the TGI in the assay on HCT-15 colon, in the assay with HOP-92 NSCLC, in the assay with LOX IMVI melanoma, with OVCAR-3 ovarian, in the assay with RXF 393 renal and in the assay with SF-268 CNS was > 100 µM each time. The TGI with SK-OV-3 ovarian, in the assay with SNB-19 CNS and in the assay on U251 CNS was > 100 µM in each case.
Regarding `CC1CCC2C(C(=O)O[C@H]3C4CCO[C@@H](OC5OC(CO)C(O)C(O)C5O)C4[C@@]4(CO)O[C@@H]34)=CO[C@@H](OC3OC(CO)C(O)C(O)C3O)C12` (stereo not given in full), the TGI in the assay with A549 NSCLC, with ACHN renal, in the assay on EKVX NSCLC, in the assay with HCT-116 colon, in the assay on HCT-15 colon and in the assay with HOP-92 NSCLC was > 10 µM in each case. The TGI in the assay on LOX IMVI melanoma, with OVCAR-3 ovarian, in the assay with OVCAR-8 ovarian, in the assay on RXF 393 renal, in the assay on SF-268 CNS and with SK-OV-3 ovarian was > 10 µM each time. Also, the TGI in the assay on SNB-19 CNS and with U251 CNS was > 10 µM each time.
For the compound `Cc1[nH]c(=O)nc(NCCNCCO)c1C(=O)Nc1c2ccccc2nc2ccccc12`, the TGI with A549 NSCLC, in the assay on ACHN renal, in the assay with CAKI-1 renal, with COLO 205 colon, with EKVX NSCLC and in the assay on HCT-116 colon was > 100 µM throughout. Further, the TGI in the assay with HCT-15 colon, in the assay on HOP-92 NSCLC, in the assay with LOX IMVI melanoma, in the assay on OVCAR-3 ovarian, with OVCAR-8 ovarian and with RXF 393 renal was > 100 µM each time. For the same compound, the TGI in the assay on SK-OV-3 ovarian, in the assay with SNB-19 CNS and in the assay on U251 CNS was > 100 µM throughout.
Turning to `O=c1[nH]nc(Cc2ccc(Cl)cc2)n1/N=C\c1ccc(/C=N/n2c(Cc3ccc(Cl)cc3)n[nH]c2=O)cc1`, the TGI with A549 NSCLC, with ACHN renal, in the assay with CAKI-1 renal, with COLO 205 colon, in the assay on EKVX NSCLC and with HCT-116 colon was > 100 µM in each case. For the same compound, the TGI in the assay with HCT-15 colon, in the assay with HOP-92 NSCLC, with LOX IMVI melanoma, in the assay with OVCAR-3 ovarian, in the assay with OVCAR-8 ovarian and in the assay on RXF 393 renal was > 100 µM each time. Besides, the figures for the TGI in the assay on SF-268 CNS, in the assay on SNB-19 CNS and in the assay with U251 CNS were > 100 µM, > 100 µM and 97.9 µM, respectively.
With `c1cncc(-c2ncc3cccnc3n2)c1`, the TGI with A549 NSCLC, with ACHN renal, in the assay with CAKI-1 renal, in the assay on COLO 205 colon, with EKVX NSCLC and with HCT-116 colon was > 100 µM each time. Moreover, the TGI in the assay on HCT-15 colon, in the assay with HOP-92 NSCLC, with LOX IMVI melanoma, in the assay on OVCAR-3 ovarian, with OVCAR-8 ovarian and in the assay with RXF 393 renal was > 100 µM each time. Moreover, the TGI in the assay with SK-OV-3 ovarian, in the assay on SNB-19 CNS and in the assay with U251 CNS was > 100 µM throughout.
Consider `CC(=O)N[C@H]1CCCC[C@@H]1OC(C)=O`, for which the TGI in the assay on ACHN renal, in the assay on CAKI-1 renal, with COLO 205 colon, with EKVX NSCLC, in the assay with HCT-116 colon and with HCT-15 colon was > 100 µM each time. Besides, the TGI in the assay on HOP-92 NSCLC, with LOX IMVI melanoma, in the assay with OVCAR-3 ovarian, in the assay with OVCAR-8 ovarian, with RXF 393 renal and in the assay with SK-OV-3 ovarian was > 100 µM throughout. Moreover, the TGI in the assay on U251 CNS was > 100 µM.
With `N#CC(c1cc2c(cc1Br)OCO2)N1CCOCC1` (stereo not given), the TGI in the assay on A549 NSCLC, in the assay on ACHN renal, with CAKI-1 renal, in the assay on COLO 205 colon, in the assay on EKVX NSCLC and in the assay with HCT-116 colon was > 100 µM throughout. Also, the TGI is > 100 µM in the assay on HOP-92 NSCLC; > 100 µM in the assay on LOX IMVI melanoma; > 100 µM in the assay on OVCAR-3 ovarian; > 100 µM with OVCAR-8 ovarian; 51.6 µM with RXF 393 renal; > 100 µM in the assay on SF-268 CNS. The TGI with SK-OV-3 ovarian and with SNB-19 CNS was > 100 µM throughout.

Values taken from PubChem BioAssay (NCI).
